Experimental data as given in US20100172854A1, “ANTIBACTERIAL FORMULATIONS” (priority 2007, published 2010).
Converted amounts (≈) assume the structure as drawn.

Tests used:
[1] = system: acyl-CoA: cholesterol acyltransferase (ACAT); details: compound isolated from Aspergillus fumigatus, believed to be Antioxidant 2246; cited from earlier work
[2] = system: Listeria monocytogenes ATCC 15313; test: MBC assay; type: cell-based
Protocol: (§1) This assay, normally carried out after an MIC assay, determines the minimum concentration of a compound that is lethal to the micro-organism being tested.
(§2) These samples were then individually sub-cultured on antibiotic-free agar medium, under the incubation conditions described above. Following incubation they were examined visually for microbial growth.

[3] = system: Clostridium difficile ATCC 7000057; test: MBC assay; type: cell-based
Protocol: as §1, §2

[4] = system: Gardnerella vaginalis ATCC 14018; test: MBC assay; type: cell-based
Protocol: as §1, §2

[5] = system: Bacillus cereus ATCC 11778; test: MBC assay; type: cell-based
Protocol: as §1, §2

[6] = system: Actinomyces naeslundii ATCC 12104; test: MBC assay; type: cell-based
Protocol: as §1, §2

[7] = system: Corynebacterium mucifaciens ATCC 700355; test: MBC assay; type: cell-based; details: ATCC700355
Protocol: as §1, §2

[8] = system: Enterococcus faecalis ATCC 29212; test: MBC assay; type: cell-based; details: ATCC29212
Protocol: as §1, §2

[9] = system: Clostridium sporogenes ATCC 3584; test: MBC assay; type: cell-based
Protocol: as §1, §2

[10] = system: Streptococcus sobrinus ATCC 33478; test: MBC assay; type: cell-based
Protocol: as §1, §2

[11] = system: Streptococcus pyogenes ATCC 12344; test: MBC assay; type: cell-based
Protocol: as §1, §2

[12] = system: Prevotella nigrescens ATCC 33563; test: MBC assay; type: cell-based
Protocol: as §1, §2

[13] = system: Porphyromonas gingivalis ATCC BAA-308; test: MBC assay; type: cell-based
Protocol: (§3) The P. gingivalis strains were cultured and maintained on Wilkins-Chalgren Anaerobe Medium (agar and broth) at pH 7.0; all cultures were incubated anaerobically at 37° C. for 5-7 days.
as §1, §2

[14] = system: Porphyromonas gingivalis NCTC 11834; test: MBC assay; type: cell-based
Protocol: as §3, §1, §2

[15] = system: Porphyromonas gingivalis ATCC 53978; test: MBC assay; type: cell-based
Protocol: as §3, §1, §2

[16] = system: Streptococcus mutans ATCC 35668; test: MIC assay; type: cell-based; details: ATCC35668
Protocol: (§4) The S. mutans strains were cultured and maintained on Wilkins-Chalgren Anaerobe Medium (agar and broth) at pH 7.0 supplemented with 1 g/L glucose; all cultures were incubated at 37° C. for 48 h in an atmosphere containing 5% CO2.
(§5) This is a standard international method for quantitatively assessing the antimicrobial activity of a compound in a liquid medium. The method used a sterile 96-well microtitre plate, capable of holding about 200 μl of liquid per well. The wells contained liquid culture medium and ranges of decreasing concentrations of the relevant test compound in doubling dilutions (e.g. 1000, 500, 250, 125 . . . μg/ml, etc. down to 0.49 μg/ml). The culture media were as described above.
(§6) The wells were inoculated with a liquid suspension of freshly grown micro-organism and incubated under the conditions described above. After incubation, the microtitre plate was examined visually (with the aid of a light box) for cloudiness in each well, which would indicate microbial growth. The MIC value was recorded as the lowest concentration of test compound required to inhibit microbial growth, i.e. the lowest concentration for which the liquid in the well remained clear.
(§7) The assays included both negative (culture medium with no micro-organisms) and positive (culture medium plus diluting solvent plus micro-organism) controls.

[17] = system: Streptococcus mutans ATCC 25175; test: MIC assay; type: cell-based; details: ATCC25175
Protocol: as §4, §5, §6, §7

[18] = system: Staphylococcus auricularis ATCC 33753; test: MBC assay; type: cell-based
Protocol: (§8) The staphylococci were cultured and maintained on Mueller-Hinton Medium (agar and broth) at pH 7.2; cultures were incubated aerobically at 37° C. for 19-20 hours.
as §1, §2

[19] = system: Staphylococcus capitis ATCC 27840; test: MBC assay; type: cell-based
Protocol: as §8, §1, §2

[20] = system: Staphylococcus aureus ATCC 29213; test: MBC assay; type: cell-based; details: S. aureus ATCC 29213
Protocol: as §8, §1, §2

[21] = system: S. saprophyticus NCTC 7292; test: MBC assay; type: cell-based
Protocol: as §8, §1, §2

[22] = system: S. epidermidis NCTC 11047; test: MBC assay; type: cell-based
Protocol: as §8, §1, §2

[23] = system: Staphylococcus cohnii ATCC 29974; test: MBC assay; type: cell-based
Protocol: as §8, §1, §2

[24] = system: Staphylococcus warneri ATCC 27836; test: MBC assay; type: cell-based
Protocol: as §8, §1, §2

S. aureus ATCC 12604 = test: MBC assay; type: cell-based, Staphylococcus aureus
Protocol: as §8, §1, §2

S. aureus CPHL VISA Mu3 = test: MBC assay; type: cell-based, Staphylococcus aureus; details: resistance phenotype Van (intermediate)
Protocol: as §8, §1, §2

S. aureus ATCC 12607 = test: MBC assay; type: cell-based, Staphylococcus aureus
Protocol: as §8, §1, §2

Cc1cc(Cc2cc(C)cc(C(C)(C)C)c2O)c(O)c(C(C)(C)C)c1 [AO 2246, 2,2′-methylene-bis(4-methyl-6-tert-butylphenol)]
inhibitor of the enzyme ACAT [1]: inhibitor | MIC/MBC Ratio [2]: 0.25 | MBC ([2]; ATCC15313): 7.8 µg/mL (≈ 22.9 µM) | MIC/MBC Ratio [3]: 1 | MBC ([3]; Clostridioides difficile, ATCC7000057): 3.9 µg/mL (≈ 11.5 µM) | MIC/MBC Ratio [4]: 1 | MBC ([4]; ATCC14018): 15.6 µg/mL (≈ 45.8 µM) | MIC/MBC Ratio [5]: 0.5 | MBC ([5]; ATCC11778): 3.9 µg/mL (≈ 11.5 µM) | MIC/MBC Ratio [6]: 0.5 | MBC ([6]; ATCC12104): 3.9 µg/mL (≈ 11.5 µM) | MBC ([7]; Corynebacterium mucifaciens ATCC 700355): 3.9 µg/mL (≈ 11.5 µM) | MIC/MBC Ratio ([7]; Corynebacterium mucifaciens): 0.5 | MBC ([8]; Enterococcus faecalis ATCC 29212): 7.8 µg/mL (≈ 22.9 µM) | MIC/MBC Ratio ([8]; Enterococcus faecalis): 0.25 | MIC/MBC Ratio [9]: 0.125 | MBC ([9]; ATCC3584): 31.2 µg/mL (≈ 91.8 µM) | MIC/MBC Ratio [10]: 0.5 | MBC ([10]; ATCC33478): 31.2 µg/mL (≈ 91.8 µM) | MIC/MBC Ratio [11]: 1 | MBC ([11]; ATCC12344): 0.98 µg/mL (≈ 2.88 µM) | MIC/MBC Ratio [12]: <0.5 | MBC ([12]; ATCC33563): > 15.6 µg/mL | MIC/MBC Ratio [13]: 1 | MBC ([13]; ATCCBAA308): 3.9 µg/mL (≈ 11.5 µM) | MIC/MBC Ratio [14]: 1 | MBC ([14]; NCTC11834): 3.9 µg/mL (≈ 11.5 µM) | MBC [15]: 1.95 µg/mL (≈ 5.73 µM) | MIC/MBC Ratio [15]: 0.5 | MIC [16]: 7.8 µg/mL (≈ 22.9 µM) | MIC [17]: 15.6 µg/mL (≈ 45.8 µM) | MIC/MBC Ratio [18]: 0.5 | MBC ([18]; ATCC33753): 3.9 µg/mL (≈ 11.5 µM) | MIC/MBC Ratio [19]: 0.25 | MBC ([19]; ATCC27840): 15.6 µg/mL (≈ 45.8 µM) | MIC/MBC Ratio [20]: 0.5 | MBC ([20]; Staphylococcus aureus, ATCC29213): 7.8 µg/mL (≈ 22.9 µM) | MIC/MBC Ratio [21]: 1 | MBC ([21]; Staphylococcus saprophyticus, NCTC7292): 3.9 µg/mL (≈ 11.5 µM) | MIC/MBC Ratio [22]: 0.5 | MBC ([22]; Staphylococcus epidermidis, NCTC11047): 7.8 µg/mL (≈ 22.9 µM) | MIC/MBC Ratio [23]: 1 | MBC ([23]; ATCC29974): 3.9 µg/mL (≈ 11.5 µM) | MIC/MBC Ratio [24]: <0.5 | MBC ([24]; ATCC27836): > 31.2 µg/mL | MIC/MBC Ratio (S. aureus ATCC 12604): 0.5 | MBC (S. aureus ATCC 12604; Staphylococcus aureus, ATCC12604): 3.9 µg/mL (≈ 11.5 µM) | MBC (S. aureus CPHL VISA Mu3; Staphylococcus aureus): 7.8 µg/mL (≈ 22.9 µM) | MIC/MBC Ratio (S. aureus CPHL VISA Mu3): 0.25 | MIC/MBC Ratio (S. aureus ATCC 12607): 0.25 | MBC (S. aureus ATCC 12607; Staphylococcus aureus, ATCC12607): 7.8 µg/mL (≈ 22.9 µM)
